Experimental data from patent publication US20150352108A1, “AMINO-PYRIMIDINE COMPOUNDS AS INHIBITORS OF TBK1 AND/OR IKK EPSILON” (Alzheimer's Institute of America, priority 2009, published 2015).
Read-outs that look alike come from different tables or passages of the source.

Experiments:
TBK1 = molecular target: T1, TBK1 (Homo sapiens, UniProt Q9UHD2); assay: In-vitro TBK1 kinase assay ([γ33]ATP filter-plate); format: biochemical
T1 construct: His-tag; made in house; host or cells: Sf9 insect cells
T1 sequence (Q9UHD2 1-729): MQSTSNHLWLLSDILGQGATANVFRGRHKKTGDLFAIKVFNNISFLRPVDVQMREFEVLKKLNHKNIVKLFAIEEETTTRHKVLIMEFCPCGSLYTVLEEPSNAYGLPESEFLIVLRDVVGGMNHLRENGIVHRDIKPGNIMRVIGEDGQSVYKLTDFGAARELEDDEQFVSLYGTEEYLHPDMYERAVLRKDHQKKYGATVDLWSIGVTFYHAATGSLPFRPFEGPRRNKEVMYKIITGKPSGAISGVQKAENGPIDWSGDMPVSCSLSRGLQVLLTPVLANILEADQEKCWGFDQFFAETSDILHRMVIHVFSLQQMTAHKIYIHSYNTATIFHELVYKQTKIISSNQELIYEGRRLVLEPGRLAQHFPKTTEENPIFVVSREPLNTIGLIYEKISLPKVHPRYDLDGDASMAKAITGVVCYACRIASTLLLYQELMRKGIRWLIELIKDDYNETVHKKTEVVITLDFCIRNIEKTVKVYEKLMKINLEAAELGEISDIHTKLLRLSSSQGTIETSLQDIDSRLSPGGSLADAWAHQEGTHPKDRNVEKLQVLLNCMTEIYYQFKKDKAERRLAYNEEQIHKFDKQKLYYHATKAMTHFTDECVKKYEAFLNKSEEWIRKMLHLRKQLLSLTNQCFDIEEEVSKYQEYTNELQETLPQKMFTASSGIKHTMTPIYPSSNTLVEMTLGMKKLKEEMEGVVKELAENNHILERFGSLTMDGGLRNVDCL
Method in brief: (§1)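 His-tagged Sf9-expressed kinases at 0.1 or 0.02 μg/ml (TBK1) and 0.1 or 0.015 μg/ml (IKKε) for normal and sensitized formats, with myelin basic protein or casein substrate. ATP was at 2×Km (60 μM TBK1, 32 μM IKKε) plus 0.3 μCi [γ33]ATP. Reactions ran 30-45 min, were captured on P-81 filters, and counts were normalized to DMSO.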

IKKε = molecular target: T2, IKKε (Homo sapiens, UniProt Q14164); assay: In-vitro IKKε kinase assay ([γ33]ATP filter-plate); format: biochemical
T2 construct: His-tag; made in house; host or cells: Sf9 insect cells
T2 sequence (Q14164 1-716): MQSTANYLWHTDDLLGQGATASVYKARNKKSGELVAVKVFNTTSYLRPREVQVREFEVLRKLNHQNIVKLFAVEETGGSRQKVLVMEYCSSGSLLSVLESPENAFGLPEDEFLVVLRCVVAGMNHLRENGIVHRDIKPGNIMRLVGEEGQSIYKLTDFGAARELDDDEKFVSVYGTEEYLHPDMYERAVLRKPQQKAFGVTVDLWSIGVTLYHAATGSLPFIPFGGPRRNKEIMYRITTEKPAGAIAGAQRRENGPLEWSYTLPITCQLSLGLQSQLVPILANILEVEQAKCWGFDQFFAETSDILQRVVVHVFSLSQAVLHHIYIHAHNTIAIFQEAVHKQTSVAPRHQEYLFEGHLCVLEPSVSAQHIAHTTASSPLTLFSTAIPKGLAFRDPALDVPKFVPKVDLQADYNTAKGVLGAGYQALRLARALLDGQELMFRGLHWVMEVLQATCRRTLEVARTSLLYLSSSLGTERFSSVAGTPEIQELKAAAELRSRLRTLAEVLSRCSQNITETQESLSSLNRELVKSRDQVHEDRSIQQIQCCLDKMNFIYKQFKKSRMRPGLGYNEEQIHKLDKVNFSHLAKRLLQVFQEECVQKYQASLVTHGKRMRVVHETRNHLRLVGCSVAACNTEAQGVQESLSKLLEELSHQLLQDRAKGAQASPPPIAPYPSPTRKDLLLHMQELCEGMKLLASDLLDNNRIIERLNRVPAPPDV
Method in brief: as §1

[1] = text bins, read-out: IC50 for inhibition of the kinase activity of TBK1
[2] = text bins, read-out: IC50 for inhibition of the kinase activity of IKKε

SMILES | IC50 (TBK1; [1]) [µM] | IC50 (IKKε; [2]) [µM] | IC50 (TBK1; Table 3, read-out: TBK1 IC50) [µM] | IC50 (IKKε; Table 3, read-out: IKKε IC50) [µM]
COc1cc(NC(=O)NC[C@H](C)O)cc(Nc2nccc(-c3ccc(OC)c(C#N)c3)n2)c1 [compound 359, 1-(3-{[4-(3-Cyano-4-methoxyphenyl)pyrimidin-2-yl]amino}-5-methoxyphenyl)-3-[(2S)-2-hydroxypropyl]urea] | 0.01 to 0.1 | 0.005 to 0.05 | – | –
N#Cc1cc(-c2ccnc(Nc3ccccc3)n2)ccc1OC1CCOCC1 [Example 12] | 0.01 to 0.1 | 0.005 to 0.05 | – | –
COc1cc(Nc2nccc(-c3ccc(OC4CCOCC4)c(C#N)c3)n2)ccc1OCCCS(=O)(=O)N1CCOCC1 [Example 28, 5-[2-({3-methoxy-4-[3-(morpholin-4-ylsulfonyl)propoxy]phenyl}amino)pyrimidin-4-yl]-2-(tetrahydro-2H-pyran-4-yloxy)benzonitrile] | < 0.01 | < 0.005 | – | –
COCCNC(=O)c1ccc(Nc2nccc(-c3ccc(OCC(C)C)c(C#N)c3)n2)cc1 [compound 565, 4-({4-[3-Cyano-4-(2-methylpropoxy)phenyl]pyrimidin-2-yl}amino)-N-(2-methoxyethyl) benzamide] | < 0.01 | < 0.005 | 0.0021 | 0.0006
N#Cc1cc(-c2ccnc(Nc3ccc(N4CCOCC4)cc3)n2)ccc1OCC[C@H]1CCCCN1C(=O)CO [compound 448, 2-{2-[(2R)-1-(hydroxyacetyl)piperidin-2-yl]ethoxy}-5-(2-{[4-(morpholin-4-yl)phenyl]amino}pyrimidin-4-yl)benzonitrile] | 0.01 to 0.1 | 0.05 to 0.5 | – | –
CS(=O)(=O)N1CCC(Nc2ccc(Nc3nccc(-c4ccc(OC5CCOCC5)c(C#N)c4)n3)cc2)CC1 [Example 171, 5-{2-[(4-{[1-(methylsulfonyl)piperidin-4-yl]amino}phenyl)amino]pyrimidin-4-yl}-2-(tetrahydro-2H-pyran-4-yloxy)benzonitrile] | < 0.01 | < 0.005 | – | –
N#Cc1cc(-c2ccnc(Nc3ccc(N4CCOCC4)cc3)n2)ccc1OC1CNC1 [Example 143, 2-(azetidin-3-yloxy)-5-(2-{[4-(morpholin-4-yl)phenyl]amino}pyrimidin-4-yl)benzonitrile] | < 0.01 | 0.005 to 0.05 | – | –
COc1ccc(-c2ccnc(Nc3ccc(OCCN4CCOCC4)c(OC)c3)n2)cc1C#N [Example 273, 2-Methoxy-5-[2-({3-methoxy-4-[2-(morpholin-4-yl)ethoxy]phenyl}amino)pyrimidin-4-yl]benzonitrile] | 0.01 to 0.1 | 0.005 to 0.05 | – | –
COc1ccc(-c2ccnc(Nc3ccc(N4CCN(C)CC4)cc3)n2)cc1C#N [compound 297, 2-Methoxy-5-(2-{[4-(4-methylpiperazin-1-yl)phenyl]amino}pyrimidin-4-yl)benzonitrile] | < 0.01 | 0.005 to 0.05 | – | –
COc1cc(NC(=O)N2CC[C@H](O)C2)cc(Nc2nccc(-c3ccc(OC)c(C#N)c3)n2)c1 [compound 294, (3S)-N-(3-{[4-(3-Cyano-4-methoxyphenyl)pyrimidin-2-yl]amino}-5-methoxyphenyl)-3-hydroxypyrrolidine-1-carboxamide] | 0.01 to 0.1 | 0.005 to 0.05 | – | –
COc1ccc(-c2ccnc(Nc3ccc(OC)c(OC)c3)n2)cc1C#N [Example 48, 5-{2-[(3,4-Dimethoxyphenyl)amino]pyrimidin-4-yl}-2-methoxybenzonitrile] | 0.01 to 0.1 | 0.005 to 0.05 | – | –
N#Cc1cc(-c2ccnc(Nc3ccc(N4CCOCC4)c(C4CC4)c3)n2)ccc1OC1CCOCC1 [compound 329, 5-(2-{[3-cyclopropyl-4-(morpholin-4-yl)phenyl]amino}pyrimidin-4-yl)-2-(tetrahydro-2H-pyran-4-yloxy)benzonitrile] | < 0.01 | < 0.005 | – | –
CC(=O)NCCCOc1ccc(-c2ccnc(Nc3ccc(N4CCOCC4)cc3)n2)cc1C#N [Example 149, N-{3-[2-cyano-4-(2-{[4-(morpholin-4-yl)phenyl]amino}pyrimidin-4-yl)phenoxy]propyl} acetamide] | 0.01 to 0.1 | 0.005 to 0.05 | – | –
COc1ccc(-c2ccnc(Nc3ccc(N4CCCNC(=O)C4)c(OC)c3)n2)cc1C#N [Example 104, 2-Methoxy-5-(2-{[3-methoxy-4-(3-oxo-1,4-diazepan-1-yl)phenyl]amino}pyrimidin-4-yl)benzonitrile] | < 0.01 | < 0.005 | – | –
CC(C)C(=O)Nc1ccc(-c2ccnc(Nc3ccc(CC(=O)N4CCOCC4)cc3)n2)cc1C#N [compound 419, N-{2-cyano-4-[2-({4-[2-(morpholin-4-yl)-2-oxoethyl]phenyl}amino)pyrimidin-4-yl]phenyl}-2-methylpropanamide] | 0.01 to 0.1 | 0.005 to 0.05 | – | –
CN1CCN(c2ccc(Nc3nccc(-c4ccc(OC5CCN(C(=O)CO)C5)c(C#N)c4)n3)cc2)CC1 (stereo not shown) [Example 254, 2-{[1-(hydroxyacetyl)pyrrolidin-3-yl]oxy}-5-(2-{[4-(4-methylpiperazin-1-yl)phenyl]amino}pyrimidin-4-yl)benzonitrile] | < 0.01 | 0.005 to 0.05 | – | –
COc1ccc(Nc2nccc(-c3ccc(C)c(C#N)c3)n2)cc1OC [Example 85, 5-{2-[(3,4-Dimethoxyphenyl)amino]pyrimidin-4-yl}-2-methylbenzonitrile] | 0.01 to 0.1 | 0.005 to 0.05 | – | –
N#Cc1cc(-c2ccnc(Nc3ccc(N4CCOCC4)cc3)n2)ccc1NC(=O)C1CCCCC1 [Example 54, N-[2-cyano-4-(2-{[4-(morpholin-4-yl)phenyl]amino}pyrimidin-4-yl)phenyl] cyclohexane-carboxamide] | 0.01 to 0.1 | 0.005 to 0.05 | – | –
COc1cc(Nc2nccc(-c3ccc(OC4CCN(C(C)=O)CC4)c(C#N)c3)n2)ccc1N1CCNC(=O)C1 [Example 134, 2-[(1-Acetylpiperidin-4-yl)oxy]-5-(2-{[3-methoxy-4-(3-oxopiperazin-1-yl)phenyl]amino}pyrimidin-4-yl)benzonitrile] | < 0.01 | < 0.005 | – | –
COc1ccc(-c2ccnc(Nc3ccc(N4CCC(N5CCN(C)CC5)CC4)c(OC)c3)n2)cc1C#N [Example 65, 2-Methoxy-5-[2-({3-methoxy-4-[4-(4-methylpiperazin-1-yl)piperidin-1-yl]phenyl}amino)pyrimidin-4-yl]benzonitrile] | < 0.01 | 0.005 to 0.05 | – | –
COc1cc(NC(=O)N[C@H]2CC[C@H](O)CC2)cc(Nc2nccc(-c3ccc(OC)c(C#N)c3)n2)c1 [Example 280, 1-(3-{[4-(3-Cyano-4-methoxyphenyl)pyrimidin-2-yl]amino}-5-methoxyphenyl)-3-(trans-4-hydroxycyclohexyl) urea] | 0.01 to 0.1 | 0.005 to 0.05 | – | –
CC(C)C(=O)Nc1ccc(-c2ccnc(Nc3cccc(CCN4CCOCC4)c3)n2)cc1C#N [compound 466, N-{2-cyano-4-[2-({3-[2-(morpholin-4-yl)ethyl]phenyl}amino)pyrimidin-4-yl]phenyl}-2-methylpropanamide] | < 0.01 | 0.005 to 0.05 | – | –
CNc1ccc(-c2ccnc(Nc3ccc(OC)c(OC)c3)n2)cc1C#N [Example 107, 5-{2-[(3,4-Dimethoxyphenyl)amino]pyrimidin-4-yl}-2-(methylamino) benzonitrile] | < 0.01 | < 0.005 | – | –
COc1cc(Nc2nccc(-c3ccc(OC)c(C#N)c3)n2)cc(OCCN2CCOCC2)c1 [Example 138, 2-Methoxy-5-[2-({3-methoxy-5-[2-(morpholin-4-yl)ethoxy]phenyl}amino)pyrimidin-4-yl]benzonitrile] | 0.01 to 0.1 | 0.005 to 0.05 | – | –
COCCNC(=O)c1ccc(Nc2nccc(-c3ccc(OCC4CC4)c(C#N)c3)n2)cc1 [compound 666] | < 0.01 | < 0.005 | – | –
